Experimental data: patent US20210030678A1, “CANNABINOID AND CBD LIPOSOME FORMULATIONS AND USES THEREOF” (Medterra Pharma, priority 2019, published 2021)

Test system: circulating TNFα
Test: Circulating TNFα versus time post inflammatory trigger (FIG. 17)
Format: in vivo
Conditions: systemic inflammatory event; equal doses
Source text: FIG. 17 includes a graph illustrating the relative percentage of circulating TNFα versus time post inflammatory trigger for a control, CBD and packaged CBD application.

Compound: C=C(C)[C@@H]1CCC(C)=C[C@H]1c1c(O)cc(CCCCC)cc1O [CBD, Cannabidiol]
- effect on relative concentration of circulating TNFα: able to quell a systemic inflammatory event
